According to patent US6590140B1, “Metal-regulated transporters and uses therefor” (Trustees of Dartmouth College, priority 1996, dated 2003):

Experiments:
ZIP1 = target: T1, ZIP1 (Arabidopsis thaliana, UniProt O81123); assay: Zn uptake by ZHY3 containing the ZIP1 gene; assay type: cell-based; conditions: 5 minute time course using 10 mM Zn
T1 construct: expressed in transfected cells; host or cells: S. cerevisiae ZHY3 (zrt1::LEU2 zrt2::HIS3) with an Arabidopsis cDNA clone in pFL61
T1 sequence (O81123 29-355): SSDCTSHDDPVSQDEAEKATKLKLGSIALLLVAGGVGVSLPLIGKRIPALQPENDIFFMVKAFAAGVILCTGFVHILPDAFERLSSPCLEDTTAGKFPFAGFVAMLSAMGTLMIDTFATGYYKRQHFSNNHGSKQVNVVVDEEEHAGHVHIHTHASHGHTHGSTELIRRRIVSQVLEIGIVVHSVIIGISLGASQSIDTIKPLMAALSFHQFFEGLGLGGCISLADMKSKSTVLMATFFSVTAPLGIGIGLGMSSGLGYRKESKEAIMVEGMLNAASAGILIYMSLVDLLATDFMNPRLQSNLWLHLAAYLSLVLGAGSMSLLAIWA
Method: (§1) Zinc uptake assays were performed as described previously for iron uptake (Eide et al. (1992) J. Biol. Chem. 267:20774-20781) except that ^65ZnCl2 (Amersham) and LZM-EDTA were substituted for ^59FeCI3 and LIM-EDTA, respectively. Cells were incubated for 5 minutes in LZM-EDTA plus the indicated concentration of ^65Zn, collected on glass fiber filters (Schleicher and Schuell), washed with 10 ml ice-cold SSW (1 mM EDTA, 20 mM trisodium citrate, 1 mM KH2PO4, 1 mM CaCl2, 5 mM MgSO4, 1 mM NaCl pH 4.2), and cell-associated radioactivity was measured by liquid scintillation counting. […] Michaelis-Menten kinetic values were determined using […] software (Intellikinetics, Princeton, N.J.). […] The statistical significance of the differences of values relative to controls was determined with one-way analysis of variance (ANOVA) followed by a Dunnett multiple comparison test. β-galactosidase activity was assayed in cells harvested at an OD600 of 0.5-2.0 as described by Guarente (Guarente, L. (1983) Methods Enzymol. 101:181-191) and activity is expressed as the change in absorbance at 420 nm×1000 divided by (min×ml of culture used×OD600 of the culture). Cell-associated zinc was measured in parallel cultures supplemented with tracer amounts of ^65Zn (10 μM) and nonradioactive zinc to the indicated final concentration. […]

ZRT1 promoter = assay: ZRT1-lacZ fusion β-galactosidase assay; assay type: cell-based, Saccharomyces cerevisiae; conditions: LZM-EDTA, 16 hours
Method: Zinc uptake assays were performed as described previously for iron uptake (Eide et al. (1992) J. Biol. Chem. 267:20774-20781) except that ^65ZnCl2 (Amersham) and LZM-EDTA were substituted for ^59FeCI3 and LIM-EDTA, respectively. Cells were incubated for 5 minutes in LZM-EDTA plus the indicated concentration of ^65Zn, collected on glass fiber filters (Schleicher and Schuell), washed with 10 ml ice-cold SSW (1 mM EDTA, 20 mM trisodium citrate, 1 mM KH2PO4, 1 mM CaCl2, 5 mM MgSO4, 1 mM NaCl pH 4.2), and cell-associated radioactivity was measured by liquid scintillation counting. Cells were starved for glucose by incubating them in LZM-EDTA prepared without glucose for one hour at 30° C. prior to assay. Michaelis-Menten kinetic values were determined using […] software (Intellikinetics, Princeton, N.J.). Stock solutions of the chloride salts of Co, Cu, Mg, Mn, and Ni were prepared in distilled water at a concentration of 100 mM. The nonradioactive ZnCl2 stock was prepared at 100 mM in 0.02 N HCl and the FeCl3 stock was prepared at 50 mM in 0.1 N HCl. The statistical significance of the differences of values relative to controls was determined with one-way analysis of variance (ANOVA) followed by a Dunnett multiple comparison test. β-galactosidase activity was assayed in cells harvested at an OD600 of 0.5-2.0 as described by Guarente (Guarente, L. (1983) Methods Enzymol. 101:181-191) and activity is expressed as the change in absorbance at 420 nm×1000 divided by (min×ml of culture used×OD600 of the culture). Cell-associated zinc was measured in parallel cultures supplemented with tracer amounts of ^65Zn (10 μM) and nonradioactive zinc to the indicated final concentration. Aliquots (0.5 ml) were filtered, washed with 10 ml ice-cold SSW, and radioactivity measured by liquid scintillation.
The effects of the zrt2 mutation on the regulation of the ZRT1 gene was also examined. […] Furthermore, cell-associated zinc levels are much lower in the zrt1 mutant grown in zinc-limiting conditions. At higher concentrations of extracellular zinc, however, these levels increased to the wild type levels. It was proposed that this accumulation was the result of zinc uptake by the low affinity system. To test this hypothesis and determine the effect of the zrt2 mutation on the pool of intracellular zinc that regulates ZRT1 gene expression, β-galactosidase activity from the ZRT1-lacZ fusion in wild type, zrt1, zrt2, and zrt1zrt2 mutant strains grown in media supplemented with a broad range of zinc concentrations was measured. […] These values are also plotted against the calculated free zinc concentration ([Zn]F). […]

ZIP2 = target: T2, ZIP2 (Arabidopsis thaliana, UniProt Q9LTH9); assay: Zn uptake by ZHY3 containing ZIP2; assay type: cell-based; conditions: ZHY3 cells containing ZIP2, 5 minute time course using 10 mM Zn
T2 construct: expressed in transfected cells; host or cells: S. cerevisiae ZHY3 (zrt1::LEU2 zrt2::HIS3) with an Arabidopsis cDNA clone in pFL61
T2 sequence (Q9LTH9 30-353): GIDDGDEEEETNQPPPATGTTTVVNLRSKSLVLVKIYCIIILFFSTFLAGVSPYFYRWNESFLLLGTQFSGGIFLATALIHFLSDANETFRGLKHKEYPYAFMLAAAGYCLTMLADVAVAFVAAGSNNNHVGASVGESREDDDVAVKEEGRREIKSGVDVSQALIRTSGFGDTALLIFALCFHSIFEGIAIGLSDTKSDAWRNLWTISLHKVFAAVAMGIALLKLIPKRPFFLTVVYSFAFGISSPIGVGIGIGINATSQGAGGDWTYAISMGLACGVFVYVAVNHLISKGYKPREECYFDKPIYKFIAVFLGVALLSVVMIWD
Method: as §1

ZIP3 = target: T3, ZIP3 (Arabidopsis thaliana, UniProt Q9SLG3); assay: Zn uptake by ZHY3 containing ZIP3; assay type: cell-based; conditions: ZIP3 containing ZHY3 cells, 5 minute time course using 10 mM Zn
T3 construct: expressed in transfected cells; host or cells: S. cerevisiae ZHY3 (zrt1::LEU2 zrt2::HIS3) with an Arabidopsis cDNA clone in pFL61
T3 sequence (Q9SLG3 26-339): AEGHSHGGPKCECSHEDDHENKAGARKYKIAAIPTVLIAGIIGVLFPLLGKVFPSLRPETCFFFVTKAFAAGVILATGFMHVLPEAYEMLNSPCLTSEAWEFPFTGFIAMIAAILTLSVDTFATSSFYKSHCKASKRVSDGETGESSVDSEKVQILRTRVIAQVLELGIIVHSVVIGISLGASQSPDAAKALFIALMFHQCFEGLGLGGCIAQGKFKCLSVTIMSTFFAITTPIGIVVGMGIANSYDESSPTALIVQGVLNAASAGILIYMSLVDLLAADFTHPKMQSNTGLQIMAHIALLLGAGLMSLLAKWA
Method: as §1

## [Zn+2] [zinc]
ZIP1
  Zn uptake rate: 191 fmol/min/10^6 cells
ZRT1 promoter; zrt1 mutant
  calculated free zinc [Zn]F at which β-galactosidase activity decreased to its minimal level: ~0.12 µM
  total zinc at which β-galactosidase activity decreased to its minimal level: 10 µM
ZRT1 promoter; zrt1zrt2 mutant
  calculated free zinc [Zn]F at which ZRT1-lacZ expression was down-regulated: ~2.4 µM
  total zinc concentration at which ZRT1-lacZ expression was down-regulated: ≥ 200 µM
ZIP2
  Zn uptake: no Zn uptake
ZIP3
  Zn uptake rate: 134 fmol/min/10^6 cells
